Assay results reported in the NIST ThermoML archive (doi:10.1016/j.jct.2006.07.012).

Settings: Fluid (supercritical or subcritical phases), Bellows volumetry

CCC [propane]
Settings | mass density [kg/m3]
280 K, 581.4 kPa | 519.39
280 K, 604.8 kPa | 519.45
280 K, 628.1 kPa | 519.49
280 K, 651.4 kPa | 519.57
280 K, 674.7 kPa | 519.62
280 K, 698 kPa | 519.69
280 K, 721.4 kPa | 519.75
300 K, 1006 kPa | 489.83
300 K, 1029.4 kPa | 489.89
300 K, 1052.6 kPa | 489.98
300 K, 1075.9 kPa | 490.05
300 K, 1099.3 kPa | 490.1
300 K, 1122.6 kPa | 490.2
300 K, 1145.9 kPa | 490.3
320 K, 1611.1 kPa | 455.49
320 K, 1634.4 kPa | 455.61
320 K, 1657.6 kPa | 455.75
320 K, 1680.9 kPa | 455.88
320 K, 1704.2 kPa | 455.99
320 K, 1727.5 kPa | 456.09
320 K, 1750.7 kPa | 456.24
340 K, 2447.1 kPa | 412.74
340 K, 2470.3 kPa | 412.98
340 K, 2493.4 kPa | 413.23
340 K, 2516.6 kPa | 413.48
340 K, 2539.8 kPa | 413.66
340 K, 2563 kPa | 413.88
340 K, 2586.2 kPa | 414.08
360 K, 3558 kPa | 346.61
360 K, 3558.8 kPa | 346.43
360 K, 3566.8 kPa | 346.83
360 K, 3569.1 kPa | 347.17
360 K, 3569.9 kPa | 346.97
360 K, 3580.3 kPa | 347.61
360 K, 3591.6 kPa | 348.04
360 K, 3592.2 kPa | 347.94
360 K, 3602.8 kPa | 348.46
360 K, 3614 kPa | 348.96
360 K, 3614.5 kPa | 348.91
360 K, 3622.6 kPa | 349.31
360 K, 3625.2 kPa | 349.4
360 K, 3636.5 kPa | 349.82
360 K, 3636.9 kPa | 349.82
360 K, 3647.8 kPa | 350.25
360 K, 3659 kPa | 350.7
360 K, 3659.4 kPa | 350.7
360 K, 3670.3 kPa | 351.13
360 K, 3678.7 kPa | 351.52
360 K, 3681.8 kPa | 351.59
360 K, 3704.3 kPa | 352.44
360 K, 3726.8 kPa | 353.19
365 K, 3897.8 kPa | 317.84
365 K, 3903 kPa | 318.4
365 K, 3923.7 kPa | 320.49
365 K, 3944.7 kPa | 322.39
365 K, 3965.9 kPa | 324.14
365 K, 3987.2 kPa | 325.86
365 K, 4008.7 kPa | 327.39
365 K, 4030.4 kPa | 328.84
